Test results as given in ChEMBL document CHEMBL4651402, “Screening of ~5500 FDA-approved drugs and clinical candidates for anti-SARS-CoV-2 activity” (2021).

System: SARS-CoV-2
Assay: microbe, parasite or virus in culture
Settings: Severe acute respiratory syndrome coronavirus 2, Vero C1008, 48 h

Row | SMILES | IC50 [µM] | IC50 (read-out: pIC50 (converted)) [µM]
1 | Cc1ccccc1OCC(O)CO (centres undefined) [MEPHENESIN] | > 20 | > 20
2 | COc1ccccc1OCC1CNC(=O)O1 (centres undefined) [MEPHENOXALONE] | > 20 | > 20
3 | CNC(C)(C)Cc1ccccc1 [MEPHENTERMINE] | > 20 | > 20
4 | CCC1(c2ccccc2)C(=O)NC(=O)N(C)C1=O (centres undefined) [MEPHOBARBITAL] | > 20 | > 20
5 | Cc1cc(CCN2CCN(c3cccc(Cl)c3)CC2)n[nH]1 [MEPIPRAZOLE] | > 20 | > 20
6 | Cc1cccc(C)c1NC(=O)C1CCCCN1C (centres undefined) [MEPIVACAINE] | > 20 | > 20
7 | COc1cccc([C@H]2C[C@@H](N[C@H](C)c3ccccc3)C(=O)N2c2ccc(C(F)(F)F)cc2)c1 [MEPPEP] | > 20 | > 20
8 | CCCC(C)(COC(N)=O)COC(N)=O [MEPROBAMATE] | > 20 | > 20
9 | CCCNC(C)(C)COC(=O)c1ccccc1 [MEPRYLCAINE] | > 20 | > 20
10 | CCC1(c2cccc(O)c2)CCCCN(C)C1 (centres undefined) [MEPTAZINOL] | > 20 | > 20
11 | COc1ccc(O)cc1 [MEQUINOL] | > 20 | > 20
12 | Sc1ncnc2nc[nH]c12 [MERCAPTOPURINE ANHYDROUS] | > 20 | > 20
13 | Cc1ccc(C(=O)Nc2ccc(Oc3cc4cnn(C)c4cc3-c3cn[nH]c3)c(F)c2)c(=O)n1-c1ccc(F)cc1 [MERESTINIB] | > 20 | > 20
14 | CC(C)C(=O)OC[C@H]1O[C@@H](n2ccc(N)nc2=O)[C@](C)(F)[C@@H]1OC(=O)C(C)C [MERICITABINE] | > 20 | > 20
15 | COc1cc(NC(=O)Nc2cccc(CNC(=O)O[C@H]3CCOC3)c2)ccc1-c1cnco1 [MERIMEPODIB] | > 20 | > 20
16 | C[C@@H](O)[C@H]1C(=O)N2C(C(=O)O)=C(S[C@@H]3CN[C@H](C(=O)N(C)C)C3)[C@H](C)[C@H]12 [MEROPENEM] | > 20 | > 20
17 | Nc1ccc(O)c(C(=O)O)c1 [MESALAMINE] | > 20 | > 20
18 | CC1CC2Oc3ccc(Cl)cc3C(=O)N2O1 (centres undefined) [MESECLAZONE] | > 20 | > 20
19 | CN1CCCCC1CCN1c2ccccc2Sc2ccc([S+](C)[O-])cc21 (centres undefined) [MESORIDAZINE] | > 20 | > 20

Row | SMILES | IC50 [µM] | IC50 (read-out: pIC50 (converted)) [µM]
20 | CCOC(=O)C1=C(C)NC(C)=C(C(=O)OCC)C1c1cccnc1SC [MESUDIPINE] | > 20 | > 20
21 | CC(=O)Nc1cccc(O)c1 [METACETAMOL] | > 20 | > 20
22 | COCC1CN=C(c2ccccc2Cl)c2cc(Br)ccc2N1C (centres undefined) [METACLAZEPAM] | > 20 | > 20
23 | COc1cc2c(cc1OC)C(=O)OC2 [METAMECONINE] | > 20 | > 20
24 | Cc1c(N(C)CS(=O)(=O)O)c(=O)n(-c2ccccc2)n1C [METAMIZOLE] | > 20 | > 20
25 | CNCC(O)c1ccc(O)c(OC)c1 (centres undefined) [METANEPHRINE] | > 20 | > 20
26 | C[C@H](N)[C@H](O)c1cccc(O)c1 [METARAMINOL] | > 20 | > 20
27 | Cc1cc(C)cc(OCC2CNC(=O)O2)c1 (centres undefined) [METAXALONE] | > 20 | > 20
28 | CN1C[C@H](CNC(=O)OCc2ccccc2)C[C@@H]2c3cccc4c3c(cn4C)C[C@H]21 [METERGOLINE] | > 20 | > 20
29 | CN(C)C(=N)NC(=N)N [METFORMIN] | > 20 | > 20
30 | CC(=O)OC(C)C[N+](C)(C)C (centres undefined) [METHACHOLINE] | > 20 | > 20
31 | C=C1c2cccc(O)c2C(=O)C2=C(O)[C@]3(O)C(=O)C(C(N)=O)=C(O)[C@@H](N(C)C)[C@@H]3[C@@H](O)[C@H]12 [METHACYCLINE] | > 20 | > 20
32 | C=CC(C)NC(=S)NNC(=S)NC (centres undefined) [METHALLIBURE] | > 20 | > 20
33 | CN[C@@H](C)Cc1ccccc1 [METHAMPHETAMINE] | > 20 | > 20
34 | O=C(NNCS(=O)(=O)O)c1ccncc1 [METHANIAZIDE] | > 20 | > 20
35 | Cc1ccccc1-n1c(C)nc2ccccc2c1=O [METHAQUALONE] | > 20 | > 20
36 | CCC1(CC)C(=O)NC(=O)N(C)C1=O [METHARBITAL] | > 20 | > 20
37 | CC(=O)/N=c1/sc(S(N)(=O)=O)nn1C [METHAZOLAMIDE] | > 20 | > 20
38 | C1N2CN3CN1CN(C2)C3 [METHENAMINE] | > 20 | > 20

Row | SMILES | IC50 [µM] | IC50 (read-out: pIC50 (converted)) [µM]
39 | COc1cccc(OC)c1C(=O)N[C@@H]1C(=O)N2[C@@H]1SC(C)(C)[C@@H]2C(=O)O [METHICILLIN] | > 20 | > 20
40 | Cn1ccnc1S [METHIMAZOLE] | > 20 | > 20
41 | COc1ccccc1OCC(O)COC(N)=O (centres undefined) [METHOCARBAMOL] | > 20 | > 20
42 | COc1ccccc1CNCCCCCCNCCCCCCCCNCCCCCCNCc1ccccc1OC [METHOCTRAMINE] | > 20 | > 20
43 | COc1cc2c(cc1OC)C(CCc1ccc(Cl)cc1)N(C)CC2 (centres undefined) [METHOPHOLINE] | > 20 | > 20
44 | COc1ccc(OC)c(C(O)C(C)N)c1 (centres undefined) [METHOXAMINE] | > 20 | > 20
45 | COc1c2occc2cc2ccc(=O)oc12 [METHOXSALEN] | > 20 | > 20
46 | CNC(C)Cc1ccccc1OC (centres undefined) [METHOXYPHENAMINE] | > 20 | > 20
47 | C[N+]1(C)[C@@H]2C[C@@H](OC(=O)[C@H](CO)c3ccccc3)C[C@H]1[C@@H]1O[C@@H]12 [METHSCOPOLAMINE] | > 20 | > 20
48 | CN1C(=O)CC(C)(c2ccccc2)C1=O (centres undefined) [METHSUXIMIDE] | > 20 | > 20
49 | CCCCCCCCCCCCCCC1(C(=O)OC)CO1 (centres undefined) [METHYL PALMOXIRATE] | > 20 | > 20
50 | CC[N+](C)(CC)CCOC(=O)C(O)(c1ccccc1)c1ccccc1 [METHYLBENACTYZIUM] | > 20 | > 20
51 | Cc1cc(C(C)(C)CC(C)(C)C)ccc1OCCOCC[N+](C)(C)Cc1ccccc1 [METHYLBENZETHONIUM] | > 20 | > 20
52 | CC(N)(Cc1ccc(O)c(O)c1)C(=O)O (stereo not drawn) [METHYLDOPA (RACEMIC)] | > 20 | > 20
53 | CCOC(=O)[C@@](C)(N)Cc1ccc(O)c(O)c1 [METHYLDOPATE] | > 20 | > 20
55 | C[N+]1(CC2CC2)CC[C@]23c4c5ccc(O)c4O[C@H]2C(=O)CC[C@@]3(O)[C@H]1C5 (some centres undefined) [METHYLNALTREXONE] | > 20 | > 20
56 | COC(=O)c1ccc(O)cc1 [METHYLPARABEN] | > 20 | > 20
57 | C[C@H]1C[C@@H]2[C@H]([C@@H](O)C[C@@]3(C)[C@H]2CC[C@]3(O)C(=O)CO)[C@@]2(C)C=CC(=O)C=C12 [METHYLPREDNISOLONE] | > 20 | > 20
